# Reference: patent publication US9469645B2, “Compounds and compositions for the treatment of parasitic diseases” (Novartis AG, priority 2009, dated 2016)
# pEC50: −log10 of the molar value.
# How the values were obtained:
# 3D7 P. falciparum strain = test: parasite proliferation assay in infected red blood cells (SYBR Green I); format: cell-based, Plasmodium falciparum; details: Plasmodium falciparum, 3D7, Erythrocyte, 3D7 strain; read-out: EC50 3D7 strain
# How it was run: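 P. falciparum 3D7 grown in O+ human erythrocytes to 3–8% parasitemia and exposed to compounds. Proliferation read as the increase in parasite DNA. Detection used SYBR Green I in saponin/triton-X/EDTA lysis buffer, with overnight lysis at room temperature.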
# W2 strain = test: parasite proliferation assay in infected red blood cells (SYBR Green I), W2 strain; format: cell-based, Plasmodium falciparum; details: Plasmodium falciparum, Erythrocyte
# Description: Compounds of the invention can be assayed to measure their capacity to inhibit proliferation of parasitemia in infected red blood cells. The proliferation is quantified by the addition of SYBR Green I (INVITROGEN)® dye which has a high affinity for double stranded DNA.
Structure (SMILES),pEC50 (3D7 P. falciparum strain),pEC50 (W2 strain)
O=C([C@@H]1CCN1)N1CCn2c(nc(-c3ccc(F)cc3)c2Nc2ccc(F)cc2)C1 [Compound 477],7.15,7.26
Cc1ccc(Nc2c(-c3cccc(F)c3)nc3n2C(C)(C)CN(C(=O)C(C)(C)N)C3)cc1 [Compound 593],5.30,5.40
CC1(C)Cn2c(nc(-c3ccc(F)cc3)c2Nc2ccc(F)c(F)c2)CN1C(=O)CN [Compound 575],7.10,7.09
Cc1cc(Nc2c(-c3ccc(F)cc3)nc3n2CCN(C(=O)C(C)(C)N)C3(C)C)ccc1F [Compound 588],8.00,8.40
N[C@@H](Cc1cscn1)C(=O)N1CCn2c(nc(-c3ccc(F)cc3)c2Nc2ccc(Cl)cc2)C1 [Compound 461],7.52,7.66
C[C@@H]1NC(=O)Cn2c1nc(-c1ccc(F)cc1)c2Nc1ccc(Cl)c(F)c1 [Compound 559],6.28,6.19
Cc1ccc(Nc2c(-c3cccc(F)c3)nc3n2C(C)(C)CN(C(=O)[C@@H](O)C(C)C)C3)cc1 [Compound 592],5.22,5.28
CC1(C)c2nc(-c3ccc(F)cc3)c(Nc3ccc(C#N)c(Cl)c3)n2CCN1C(=O)CN [Compound 534],7.40,7.72
CC1(C)c2nc(-c3ccc(F)cc3)c(Nc3ccc(S(C)(=O)=O)cc3)n2CCN1C(=O)CN [Compound 570],5.25,5.25
CC(C)N(c1ccc(Cl)c(F)c1)c1c(-c2ccc(F)cc2)nc2n1CCNC2 [Compound 444],5.14,5.22
CC1(C)NC(=O)Cn2c1nc(-c1ccc(F)cc1)c2Nc1ccc(Cl)c(Cl)c1 [Compound 506],6.72,6.70
CC(C)[C@H](O)C(=O)N1CCn2c(nc(-c3ccc(F)cc3)c2Nc2ccc(Cl)cc2)C1 [Compound 455],8.00,8.10
CC1(C)c2nc(-c3ccc(F)cc3)c(Nc3cccc(C(F)(F)F)c3)n2CCN1C(=O)C(F)(F)F [Compound 528],6.82,6.92
CC1(C)NC(=O)Cn2c1nc(-c1ccc(F)cc1)c2Nc1cccc(C(F)(F)F)c1 [Compound 500],5.81,5.96
CC1(C)Cn2c(nc(-c3ccc(F)cc3)c2Nc2ccc(C#N)c(F)c2)CN1C(=O)CN [Compound 577],6.20,6.21
N[C@@H](Cc1cscn1)C(=O)N1CCn2c(nc(-c3ccc(F)cc3)c2Nc2ccc(F)cc2)C1 [Compound 476],7.40,7.57
CC(C)[C@H](N)C(=O)N1CCn2c(nc(-c3ccc(F)cc3)c2Nc2ccc(Cl)cc2)C1 [Compound 449],7.52,7.59
Cc1ccc(Nc2c(-c3ccc(F)cc3)nc3n2CC(=O)NC3(C)C)cc1C#N [Compound 535],5.57,5.63
CN1CCN(c2ccc(Nc3c(-c4ccc(F)cc4)nc4n3CCNC4(C)C)cc2)CC1 [Compound 572],4.95,5.06
Cc1ccc(Nc2c(-c3ccc(F)c(Cl)c3)nc3n2CCNC3)cc1 [Compound 497],5.10,5.23
C[C@H]1NC(=O)Cn2c1nc(-c1ccc(F)cc1)c2Nc1ccc(Cl)c(F)c1 [Compound 564],6.60,6.44
Cc1ccc(Nc2c(-c3ccc(F)cc3)nc3n2CCN(C(=O)[C@@H](N)CC(C)C)C3)cc1 [Compound 480],7.52,7.66
CC1(C)NC(=O)Cn2c1nc(-c1ccc(F)c(F)c1)c2Nc1ccc(Cl)c(F)c1 [Compound 551],7.40,7.01
CC[C@H](C)[C@H](N)C(=O)N1CCn2c(nc(-c3ccc(F)cc3)c2Nc2ccc(F)c(F)c2)C1 [Compound 442],7.70,7.48
N[C@@H](CC1CC1)C(=O)N1CCn2c(nc(-c3ccc(F)cc3)c2Nc2ccc(Cl)cc2)C1 [Compound 451],7.52,7.72
CC1(C)Cn2c(nc(-c3ccc(F)cc3)c2Nc2ccc(Cl)cc2)CN1C(=O)CN [Compound 557],7.70,7.70
